Values quoted from earlier work in paper PMC2709231 (European Journal of Nuclear Medicine and Molecular Imaging, 2009).

Conditions: human, in vivo

^90Y-DTPA-(D)Glu^1-(Glu)5-Ala-Tyr-Gly-Trp-Met-Asp-Phe-NH2 [^90Y-DTPA-DGlu^1-minigastrin]
Side effects of radionuclide therapy: serious side effects, including renal insufficiency and bone marrow toxicity
